Species on record: Rattus norvegicus
Experiment: Open TG-GATES - Regimen: Daily Repeat
Type: toxicity, organism-based, Sprague-Dawley
Parameters: regimen Daily Repeat, gender Male, age 6 weeks
Details: in vivo, po, route gavage; for APTT / Bas / Eos / Fbg / Hb / Ht / Lym / MCHC / MCV / Mono / Neu / PT / Plat / RBC / Ret / WBC: tissue Blood; for KIDNEY_L / KIDNEY_R / KIDNEY_TOTAL: tissue Kidney; for LIVER: tissue Liver; for ALP / ALT / AST / BUN / CRE / Ca / Cl / DBIL / GLC / IP / K / LDH / Na / PL / RALB / TBIL / TC / TG / TP / gamma-GTP: tissue Plasma
[1] = 0 mg/kg, 72 h, dose level Control, time 3 day
[2] = 0 mg/kg, […], dose level Control, time 7 day
[3] = 0 mg/kg, […], dose level Control, time 14 day
[4] = 0 mg/kg, […], dose level Control, time 28 day
[5] = 15 mg/kg, 72 h, dose level Low, time 3 day
[6] = 15 mg/kg, […], dose level Low, time 7 day
[7] = 15 mg/kg, […], dose level Low, time 14 day
[8] = 15 mg/kg, […], dose level Low, time 28 day

What does the source list for C1CCC(C(CC2CCCCN2)C2CCCCC2)CC1 (stereo not drawn) [PERHEXILINE]?
TERMINAL_BW [1]: 228.9 g; APTT [1]: 21.9 s; Bas [1]: 0%; Eos [1]: 0.8%; Fbg [1]: 312.4 mg/dL; Hb [1]: 13.2 g/dL; Ht [1]: 39.2%; Lym [1]: 79%; MCHC [1]: 33.8%; MCV [1]: 63.9 fL; Mono [1]: 2.8%; Neu [1]: 16.2%; PT [1]: 16.7 s; Plat [1]: 133 x10_4/uL; RBC [1]: 613.6 x10_4/ul; Ret [1]: 7%; WBC [1]: 89.3 x10_2/uL; KIDNEY_L [1]: 1.1 g; KIDNEY_R [1]: 1 g; KIDNEY_TOTAL [1]: 2.1 g; LIVER [1]: 11.1 g; ALP [1]: 1695 IU/L; ALT [1]: 45.8 IU/L; AST [1]: 76.4 IU/L; BUN [1]: 16.4 mg/dL; CRE [1]: 0.1 mg/dL; Ca [1]: 11 mg/dL; Cl [1]: 107.2 meq/L; DBIL [1]: 0 mg/dL; GLC [1]: 192.6 mg/dL; IP [1]: 6.9 mg/dL; K [1]: 4.3 meq/L; LDH [1]: 248.8 IU/L; Na [1]: 143.2 meq/L; PL [1]: 149.4 mg/dL; RALB [1]: 3.2 g/dL; TBIL [1]: 0.01 mg/dL; TC [1]: 75.6 mg/dL; TG [1]: 113.8 mg/dL; TP [1]: 5.8 g/dL; gamma-GTP [1]: 1 IU/L; TERMINAL_BW [2]: 255.2 g; TERMINAL_BW [3]: 290.3 g; TERMINAL_BW [4]: 335.5 g; APTT [2]: 21.5 s; Bas [2]: 0%; Eos [2]: 0.6%; Fbg [2]: 316.4 mg/dL; Hb [2]: 13.5 g/dL; Ht [2]: 38.5%; Lym [2]: 81.8%; MCHC [2]: 35.2%; MCV [2]: 61.3 fL; Mono [2]: 1.4%; Neu [2]: 15%; PT [2]: 16.1 s; Plat [2]: 118.5 x10_4/uL; RBC [2]: 629 x10_4/ul; Ret [2]: 5.6%; WBC [2]: 110.4 x10_2/uL; APTT [3]: 23.3 s; Bas [3]: 0%; Eos [3]: 0.2%; Fbg [3]: 294 mg/dL; Hb [3]: 15 g/dL; Ht [3]: 42.7%; Lym [3]: 82%; MCHC [3]: 35.2%; MCV [3]: 60.8 fL; Mono [3]: 1.2%; Neu [3]: 15.2%; PT [3]: 16.2 s; Plat [3]: 116.2 x10_4/uL; RBC [3]: 702.8 x10_4/ul; Ret [3]: 3.5%; WBC [3]: 97.2 x10_2/uL; APTT [4]: 21.5 s; Bas [4]: 0%; Eos [4]: 0.6%; Fbg [4]: 316.4 mg/dL; Hb [4]: 13.5 g/dL; Ht [4]: 38.5%; Lym [4]: 81.8%; MCHC [4]: 35.2%; MCV [4]: 61.3 fL; Mono [4]: 1.4%; Neu [4]: 15%; PT [4]: 16.1 s; Plat [4]: 118.5 x10_4/uL; RBC [4]: 629 x10_4/ul; Ret [4]: 5.6%; WBC [4]: 110.4 x10_2/uL; KIDNEY_L [2]: 1.1 g; KIDNEY_R [2]: 1.1 g; KIDNEY_TOTAL [2]: 2.2 g; KIDNEY_L [3]: 1.1 g; KIDNEY_R [3]: 1.1 g; KIDNEY_TOTAL [3]: 2.3 g; KIDNEY_L [4]: 1.2 g; KIDNEY_R [4]: 1.2 g; KIDNEY_TOTAL [4]: 2.5 g; LIVER [2]: 11.8 g; LIVER [3]: 12.3 g; LIVER [4]: 12.9 g; ALP [2]: 1691 IU/L; ALT [2]: 38 IU/L; AST [2]: 67.6 IU/L; BUN [2]: 18.6 mg/dL; CRE [2]: 0.2 mg/dL; Ca [2]: 10.5 mg/dL; Cl [2]: 106.6 meq/L; DBIL [2]: 0.002 mg/dL; GLC [2]: 190.4 mg/dL; IP [2]: 6.8 mg/dL; K [2]: 4.1 meq/L; LDH [2]: 174.2 IU/L; Na [2]: 143.6 meq/L; PL [2]: 152.6 mg/dL; RALB [2]: 3.1 g/dL; TBIL [2]: 0.014 mg/dL; TC [2]: 79.8 mg/dL; TG [2]: 101 mg/dL; TP [2]: 5.8 g/dL; gamma-GTP [2]: 1.6 IU/L; ALP [3]: 1487.8 IU/L; ALT [3]: 39.2 IU/L; AST [3]: 71.8 IU/L; BUN [3]: 19 mg/dL; CRE [3]: 0.2 mg/dL; Ca [3]: 10.2 mg/dL; Cl [3]: 107 meq/L; DBIL [3]: 0 mg/dL; GLC [3]: 192 mg/dL; IP [3]: 6.1 mg/dL; K [3]: 4.2 meq/L; LDH [3]: 180 IU/L; Na [3]: 143.2 meq/L; PL [3]: 134 mg/dL; RALB [3]: 3.2 g/dL; TBIL [3]: 0.005 mg/dL; TC [3]: 59 mg/dL; TG [3]: 131.5 mg/dL; TP [3]: 5.8 g/dL; gamma-GTP [3]: 1 IU/L; ALP [4]: 1236.4 IU/L; ALT [4]: 34.4 IU/L; AST [4]: 60 IU/L; BUN [4]: 17.8 mg/dL; CRE [4]: 0.2 mg/dL; Ca [4]: 10.1 mg/dL; Cl [4]: 108.6 meq/L; DBIL [4]: 0 mg/dL; GLC [4]: 204.2 mg/dL; IP [4]: 5.6 mg/dL; K [4]: 4.2 meq/L; LDH [4]: 148.4 IU/L; Na [4]: 143.6 meq/L; PL [4]: 129.6 mg/dL; RALB [4]: 3 g/dL; TBIL [4]: 0.008 mg/dL; TC [4]: 63 mg/dL; TG [4]: 92.8 mg/dL; TP [4]: 6 g/dL; gamma-GTP [4]: 1.4 IU/L; TERMINAL_BW [5]: 221.1 g; APTT [5]: 22 s; Bas [5]: 0%; Eos [5]: 0.8%; Fbg [5]: 313.4 mg/dL; Hb [5]: 13.4 g/dL; Ht [5]: 39.5%; Lym [5]: 82.4%; MCHC [5]: 33.7%; MCV [5]: 62.1 fL; Mono [5]: 1.6%; Neu [5]: 14.2%; PT [5]: 16.6 s; Plat [5]: 127.5 x10_4/uL; RBC [5]: 637.8 x10_4/ul; Ret [5]: 5.8%; WBC [5]: 90.6 x10_2/uL; KIDNEY_L [5]: 1 g; KIDNEY_R [5]: 1 g; KIDNEY_TOTAL [5]: 2 g; LIVER [5]: 10.6 g; ALP [5]: 1691.8 IU/L; ALT [5]: 40.6 IU/L; AST [5]: 69.8 IU/L; BUN [5]: 16.2 mg/dL; CRE [5]: 0.2 mg/dL; Ca [5]: 10.8 mg/dL; Cl [5]: 106.4 meq/L; DBIL [5]: 0 mg/dL; GLC [5]: 186.2 mg/dL; IP [5]: 6.6 mg/dL; K [5]: 4.2 meq/L; LDH [5]: 253.2 IU/L; Na [5]: 142.6 meq/L; PL [5]: 150 mg/dL; RALB [5]: 3.1 g/dL; TBIL [5]: 0.008 mg/dL; TC [5]: 74 mg/dL; TG [5]: 131 mg/dL; TP [5]: 5.7 g/dL; gamma-GTP [5]: 1 IU/L; TERMINAL_BW [6]: 248.3 g; TERMINAL_BW [7]: 309.8 g; TERMINAL_BW [8]: 362.5 g; APTT [6]: 22.8 s; Bas [6]: 0%; Eos [6]: 1%; Fbg [6]: 313.2 mg/dL; Hb [6]: 13.6 g/dL; Ht [6]: 39.9%; Lym [6]: 79.4%; MCHC [6]: 34%; MCV [6]: 62.5 fL; Mono [6]: 2.2%; Neu [6]: 16.6%; PT [6]: 16 s; Plat [6]: 115.3 x10_4/uL; RBC [6]: 639.4 x10_4/ul; Ret [6]: 5.3%; WBC [6]: 110.7 x10_2/uL; APTT [7]: 23.1 s; Bas [7]: 0%; Eos [7]: 0.4%; Fbg [7]: 320.2 mg/dL; Hb [7]: 14.9 g/dL; Ht [7]: 42.6%; Lym [7]: 82.8%; MCHC [7]: 35%; MCV [7]: 60.8 fL; Mono [7]: 1.6%; Neu [7]: 13.8%; PT [7]: 16.1 s; Plat [7]: 112 x10_4/uL; RBC [7]: 702.2 x10_4/ul; Ret [7]: 3.7%; WBC [7]: 125.7 x10_2/uL; APTT [8]: 22.8 s; Bas [8]: 0%; Eos [8]: 1%; Fbg [8]: 313.2 mg/dL; Hb [8]: 13.6 g/dL; Ht [8]: 39.9%; Lym [8]: 79.4%; MCHC [8]: 34%; MCV [8]: 62.5 fL; Mono [8]: 2.2%; Neu [8]: 16.6%; PT [8]: 16 s; Plat [8]: 115.3 x10_4/uL; RBC [8]: 639.4 x10_4/ul; Ret [8]: 5.3%; WBC [8]: 110.7 x10_2/uL; KIDNEY_L [6]: 1.1 g; KIDNEY_R [6]: 1.1 g; KIDNEY_TOTAL [6]: 2.1 g; KIDNEY_L [7]: 1.2 g; KIDNEY_R [7]: 1.2 g; KIDNEY_TOTAL [7]: 2.4 g; KIDNEY_L [8]: 1.3 g; KIDNEY_R [8]: 1.3 g; KIDNEY_TOTAL [8]: 2.6 g; LIVER [6]: 12 g; LIVER [7]: 13 g; LIVER [8]: 14.5 g; ALP [6]: 1491.4 IU/L; ALT [6]: 41 IU/L; AST [6]: 70.8 IU/L; BUN [6]: 17 mg/dL; CRE [6]: 0.2 mg/dL; Ca [6]: 10.3 mg/dL; Cl [6]: 106.8 meq/L; DBIL [6]: 0 mg/dL; GLC [6]: 199.8 mg/dL; IP [6]: 7.2 mg/dL; K [6]: 4.2 meq/L; LDH [6]: 213.8 IU/L; Na [6]: 143.6 meq/L; PL [6]: 157.8 mg/dL; RALB [6]: 3 g/dL; TBIL [6]: 0.004 mg/dL; TC [6]: 75 mg/dL; TG [6]: 162.4 mg/dL; TP [6]: 5.7 g/dL; gamma-GTP [6]: 1.6 IU/L; ALP [7]: 1618.8 IU/L; ALT [7]: 41.2 IU/L; AST [7]: 73.8 IU/L; BUN [7]: 18.6 mg/dL; CRE [7]: 0.2 mg/dL; Ca [7]: 10.5 mg/dL; Cl [7]: 107 meq/L; DBIL [7]: 0 mg/dL; GLC [7]: 191.8 mg/dL; IP [7]: 6.1 mg/dL; K [7]: 4.1 meq/L; LDH [7]: 207.4 IU/L; Na [7]: 143.8 meq/L; PL [7]: 145.4 mg/dL; RALB [7]: 3.2 g/dL; TBIL [7]: 0.004 mg/dL; TC [7]: 65.4 mg/dL; TG [7]: 177.2 mg/dL; TP [7]: 6 g/dL; gamma-GTP [7]: 1.6 IU/L; ALP [8]: 1153.2 IU/L; ALT [8]: 39.4 IU/L; AST [8]: 63.6 IU/L; BUN [8]: 18.2 mg/dL; CRE [8]: 0.2 mg/dL; Ca [8]: 10.3 mg/dL; Cl [8]: 108 meq/L; DBIL [8]: 0.002 mg/dL; GLC [8]: 191 mg/dL; IP [8]: 6.4 mg/dL; K [8]: 4 meq/L; LDH [8]: 156 IU/L; Na [8]: 144.4 meq/L; PL [8]: 138.6 mg/dL; RALB [8]: 3.2 g/dL; TBIL [8]: 0.012 mg/dL; TC [8]: 63.2 mg/dL; TG [8]: 130.2 mg/dL; TP [8]: 6.2 g/dL; gamma-GTP [8]: 1.2 IU/L

Reference: ChEMBL document CHEMBL3885861, “Open TG-GATES”
